Measured values published in patent publication US8372967B2, “Compounds and methods for modulating expression of GCCR” (Isis Pharmaceuticals, Inc., priority 2006, dated 2013).
Strand notation (5' to 3'): a small letter for the sugar, then the base; units joined by * are phosphorothioate-linked, units joined directly phosphodiester-linked; [ ] holds rarer units or linkages, { } end groups; capitals alone tell only the bases. e = 2'-O-(2-methoxyethyl) (MOE); [5mC] = 5-methylcytosine; d = 2'-deoxy (DNA)

Experiments:
SGLT2 mRNA = SGLT2 mRNA in kidney of Balb/c mice, twenty 1-10-1 MOE gapmers, PPS 534 and PPS 553 (Table 74); type: in vivo, mouse; conditions: i.p. 350 nmol/kg twice per week for two weeks
Method: Twenty 1-10-1 MOE gapmers that are complementary to human/monkey/mouse/rat SGLT2 were designed, synthesized and tested in vivo for suppression of SGLT2 mRNA levels in kidney. Data are averages from two experiments in which male 6-week old Balb/c mice were administered intraperitoneal injections of 350 nmol/kg of oligonucleotide, twice per week, over a period of two weeks (a total of four injections). Mice were sacrificed 48 hours following the last administration and evaluated for SGLT2 mRNA levels in kidney. SGLT2 mRNA levels were determined by quantitative real-time PCR analysis according to standard procedures, using two different PCR primer probe sets, primer probe set (PPS) 534 and PPS 553. SGLT2 mRNA levels were normalized to cyclophilin mRNA levels, which were also measured by quantitative real-time PCR.

PTP1B mRNA = assay: Dose response for human PTP1B in HuVEC cells, PPS 198 and PPS 3000 (Tables 86, 87); type: cell-based
Method: Human vascular endothelial (HuVEC) cells were plated at a density of 5000 cells per well and treated as described herein with nM concentrations of short antisense compound as indicated in Table 86. After the treatment period, RNA was isolated from the cells and PTP1B mRNA levels were measured by quantitative real-time PCR, as described herein. PTP1B mRNA levels were adjusted according to total RNA content as measured by RIBOGREEN®. Two different human PTP1B primer probe sets were used to measure mRNA levels. Results with Primer Probe Set (PPS) 198 are shown in Table 86, and results with Primer Probe Set (PPS) 3000 are shown in Table 87. Results are presented as percent inhibition of PTP1B mRNA expression relative to untreated control cells.

PCSK9 mRNA [1] = type: cell-based, human; conditions: Hep3B cells, 100 nM, relative to untreated control cells; for % Inhib: 0 = no reduction observed
PCSK9 mRNA [2] = assay: Dose-dependent antisense inhibition of PCSK9 in Hep3B cells, EC50 (Table 76); type: cell-based, human
Method: When cells reached appropriate confluency, they were treated with oligonucleotide using LIPOFECTIN® as described. […] Cells were treated and data were obtained in duplicate or triplicate. […] Cells were harvested 16-24 hours after oligonucleotide treatment.
Short antisense compounds targeted to a PCSK9 nucleic acid were tested in a dose response experiment Hep3B cells. After the treatment period, RNA was isolated from the cells and PCSK9 mRNA levels were measured by quantitative real-time PCR, as described herein. PCSK9 mRNA levels were normalized to cyclophilin mRNA levels, as measured by real-time PCR using a cyclophilin-specific primer probe set. Results are presented as percent inhibition of PCSK9, relative to untreated control cells. […] As illustrated in the following table, PCSK9 mRNA levels were reduced in a dose-dependent manner.

[3] = Triglyceride, cholesterol and glucose levels, pre-bleed and post-bleed, GCGR study (Table 34); type: in vivo, mouse; conditions: C57/BL6 mice, 48 hours after single i.p. dose
Method: Eight-week old male C57/BL6 mice (Jackson Laboratory, Bar Harbor, Me.) were administered a single dose of GCGR oligonucleotide by intraperitoneal injection at a concentration of […]. Each dose group consisted of four animals. Shown in Table 31 are the sequences, motifs and conjugates of the GCGR antisense compounds used in this study. Bolded residues indicate 2′-O-methoxyethyl (2′-MOE) moieties. All compounds comprise phosphorothioate internucleoside linkages throughout and each cytosine is replaced with 5-methylcytosine. ISIS 386626, ISIS 386627 and ISIS 386628 further comprise a C16 conjugate group attached to the 2′-O position of the sugar via a diamide linkage (2′-OCH2C(═O)N(H)(CH2)4N(H)C(═O)—(CH2)15CH3). GCGR antisense compounds target published GCGR sequences, including Genbank® Accession No. BC031885.1 (SEQ ID NO: 7).
Mice were sacrificed 48 hours following injection to determine serum transaminase levels (Table 32); liver, white adipose tissue (WAT), spleen and kidney weight (Table 33); cholesterol, triglyceride and glucose levels (Table 34); GCGR mRNA levels (Tables 35-41); and full-length and total oligonucleotide concentration in liver and kidney (Table 42). Endpoints were assessed using methods described herein and well known to those of ordinary skill in the art. Data is included from a pre-treatment bleed (Pre-Bleed) and post-treatment bleed (Post-Bleed).

[4] = primer probe set 534, normalized to cyclophilin
[5] = primer probe set 553, normalized to cyclophilin

| Substance | % change in SGLT2 mRNA vs saline (SGLT2 mRNA; [4]) [% Saline] | % change in SGLT2 mRNA vs saline (SGLT2 mRNA; [5]) [% Saline] | % Inhibition Range (PCSK9 mRNA [1]) | % Inhib (PCSK9 mRNA [1]) [%] | % Inhibition (PCSK9 mRNA [2]; 5 nM) [%] | % Inhibition (PCSK9 mRNA [2]; 10 nM) [%] | % Inhibition (PCSK9 mRNA [2]; 20 nM) [%] | % Inhibition (PCSK9 mRNA [2]; 40 nM) [%] | % Inhibition (PCSK9 mRNA [2]; 80 nM) [%] | % Inhibition (PCSK9 mRNA [2]; 160 nM) [%] | other results |
| --- | --- | --- | --- | --- | --- | --- | --- | --- | --- | --- | --- |
| 370717 (antisense eT*dA*dG*d[5mC]*d[5mC]*dA*d[5mC]*d[5mC]*dA*dA*d[5mC]*eT) [compound 370717] | −84.4 | −84.3 | – | – | – | – | – | – | – | – | – |
| 379684 (antisense eT*dG*dT*d[5mC]*dA*dG*d[5mC]*dA*dG*dG*dA*eT) [compound 379684] | −45.0 | −43.2 | – | – | – | – | – | – | – | – | – |
| 379685 (antisense eT*dG*dA*d[5mC]*d[5mC]*dA*dG*d[5mC]*dA*dG*dG*eA) [compound 379685] | −10.3 | −20.5 | – | – | – | – | – | – | – | – | – |
| 379686 (antisense eA*d[5mC]*d[5mC]*dA*d[5mC]*dA*dA*dG*d[5mC]*d[5mC]*dA*eA) [compound 379686] | −71.9 | −75.1 | – | – | – | – | – | – | – | – | – |
| 379687 (antisense eG*dA*dT*dG*dT*dT*dG*d[5mC]*dT*dG*dG*e[5mC]) [compound 379687] | −47.1 | −52.1 | – | – | – | – | – | – | – | – | – |
| 379688 (antisense e[5mC]*d[5mC]*dA*dA*dG*d[5mC]*d[5mC]*dA*d[5mC]*dT*dT*eG) [compound 379688] | −62.6 | −70.4 | – | – | – | – | – | – | – | – | – |
| 379689 (antisense eA*dG*dA*dG*d[5mC]*dG*d[5mC]*dA*dT*dT*d[5mC]*e[5mC]) [compound 379689] | −17.5 | −30.4 | – | – | – | – | – | – | – | – | – |
| 379690 (antisense eA*d[5mC]*dA*dG*dG*dT*dA*dG*dA*dG*dG*e[5mC]) [compound 379690] | −18.9 | −22.5 | – | – | – | – | – | – | – | – | – |
| 379691 (antisense eA*dG*dA*dT*d[5mC]*dT*dT*dG*dG*dT*dG*eA) [compound 379691] | −35.0 | −48.6 | – | – | – | – | – | – | – | – | – |
| 379692 (antisense eT*dG*dT*dT*d[5mC]*d[5mC]*dA*dG*d[5mC]*d[5mC]*d[5mC]*eA) [compound 379692] | −88.1 | −88.5 | – | – | – | – | – | – | – | – | – |
| 379693 (antisense e[5mC]*dA*dT*dG*dG*dT*dG*dA*dT*dG*d[5mC]*e[5mC]) [compound 379693] | −51.6 | −59.9 | – | – | – | – | – | – | – | – | – |
| 399276 (eG*eA*dG*dG*dT*dA*dT*d[5mC]*d[5mC]*d[5mC]*dA*dT*e[5mC]*eT; antisense) [compound 399276] | – | – | – | – | – | – | – | – | – | – | % Inhibition (PTP1B mRNA; PPS 198, 1.11 nM): 0%; % Inhibition (PTP1B mRNA; PPS 198, 3.33 nM): 8%; % Inhibition (PTP1B mRNA; PPS 198, 10.0 nM): 61%; % Inhibition (PTP1B mRNA; PPS 198, 30.0 nM): 89%; % Inhibition (PTP1B mRNA; PPS 3000, 1.11 nM): 0%; % Inhibition (PTP1B mRNA; PPS 3000, 3.33 nM): 14%; % Inhibition (PTP1B mRNA; PPS 3000, 10.0 nM): 64%; % Inhibition (PTP1B mRNA; PPS 3000, 30.0 nM): 86% |
| 399315 (antisense eG*eG*d[5mC]*dA*dA*d[5mC]*dT*dT*d[5mC]*dA*dA*d[5mC]*e[5mC]*eT) [compound 399315] | – | – | – | – | – | – | – | – | – | – | % Inhibition (PTP1B mRNA; PPS 198, 1.11 nM): 0%; % Inhibition (PTP1B mRNA; PPS 198, 3.33 nM): 20%; % Inhibition (PTP1B mRNA; PPS 198, 10.0 nM): 68%; % Inhibition (PTP1B mRNA; PPS 198, 30.0 nM): 88%; % Inhibition (PTP1B mRNA; PPS 3000, 1.11 nM): 0%; % Inhibition (PTP1B mRNA; PPS 3000, 3.33 nM): 25%; % Inhibition (PTP1B mRNA; PPS 3000, 10.0 nM): 71%; % Inhibition (PTP1B mRNA; PPS 3000, 30.0 nM): 93% |
| 400307 (antisense e[5mC]*eG*dG*d[5mC]*d[5mC]*dG*d[5mC]*dT*dG*dA*d[5mC]*d[5mC]*eA*e[5mC]) [compound 400307] | – | – | 70-80% | 76 | 35 | 39 | 45 | 56 | 92 | 93 | – |
| 400308 (antisense e[5mC]*e[5mC]*dG*dG*d[5mC]*d[5mC]*dG*d[5mC]*dT*dG*dA*d[5mC]*e[5mC]*eA) [compound 400308] | – | – | 50-60% | 55 | 31 | 10 | 26 | 40 | 77 | 86 | – |
| 400309 (antisense e[5mC]*e[5mC]*d[5mC]*dG*dG*d[5mC]*d[5mC]*dG*d[5mC]*dT*dG*dA*e[5mC]*e[5mC]) [compound 400309] | – | – | 40-50% | 44 | 49 | 23 | 38 | 12 | 72 | 78 | – |
| 400327 (antisense eG*eT*d[5mC]*d[5mC]*d[5mC]*d[5mC]*dA*dA*dA*dG*dT*d[5mC]*e[5mC]*e[5mC]) [compound 400327] | – | – | 30-40% | 36 | 5 | 37 | 23 | 49 | 43 | 55 | – |
| 400330 (antisense e[5mC]*e[5mC]*dA*d[5mC]*dG*dT*dG*dG*dG*d[5mC]*dA*dG*e[5mC]*eA) [compound 400330] | – | – | 40-50% | 43 | 8 | 32 | 40 | 69 | 82 | 71 | – |
| 400331 (antisense eG*e[5mC]*d[5mC]*dA*d[5mC]*dG*dT*dG*dG*dG*d[5mC]*dA*eG*e[5mC]) [compound 400331] | – | – | 30-40% | 35 | 29 | 40 | 47 | 63 | 75 | 82 | – |
| 400352 (antisense e[5mC]*eA*d[5mC]*d[5mC]*d[5mC]*dT*d[5mC]*dA*d[5mC]*d[5mC]*d[5mC]*d[5mC]*e[5mC]*eA) [compound 400352] | – | – | 20-30% | 29 | 7 | 16 | 40 | 44 | 63 | 64 | – |
| 400353 (antisense eA*e[5mC]*dA*d[5mC]*d[5mC]*d[5mC]*dT*d[5mC]*dA*d[5mC]*d[5mC]*d[5mC]*e[5mC]*e[5mC]) [compound 400353] | – | – | 10-20% | 19 | 15 | 27 | 23 | 43 | 54 | 48 | – |
| ISIS 386628: GCGR short antisense compound with C16 conjugate group at 2′-O via diamide linkage (TGTCTTGCTGCTTT; chemistry not fully specified) | – | – | – | – | – | – | – | – | – | – | Glucose levels (post-bleed) [3]: decrease in post-bleed glucose levels |
